Source: US8524755B2 (priority 2009, dated 2013)

Columns and labels:
BLT1 (LTB4) (h) = target: T1, BLT1 (LTB4) (h) (Homo sapiens, UniProt Q15722); assay: Binding BLT1 (LTB4) (h) (ag); settings: read-out: % Inhibition of Control Specific Binding @ 10 μM
T1 construct: expressed in transfected cells; host or cells: CHO cells
Procedure: (§1) Radioligand binding assay methods utilized to measure the activity of compounds of the invention will be familiar to those skilled in the art. In each assay case, the assay components such as, for example, the cell-type, ligand, reference compound and the like, will be familiar to practitioners of such an assay.
(§2) Analysis and Expression of Results: Compounds of the invention were tested in the biochemical assays and percent inhibition of specific binding was determined. The specific ligand binding to the receptors is defined as the difference between the total binding and the nonspecific binding determined in the presence of an excess of unlabelled ligand. The results are expressed as a percent inhibition of control specific binding (100−((measured specific binding/control specific binding)×100)) obtained in the presence of test compounds.

Bradykinin B1 (h) = target: T2, Bradykinin B1 (h) (Homo sapiens, UniProt P46663); assay: Binding B1 (h) (ag); settings: read-out: % Inhibition of Control Specific Binding @ 10 μM
T2 construct: expressed in transfected cells; host or cells: CHO cells
T2 sequence (P46663 1-353): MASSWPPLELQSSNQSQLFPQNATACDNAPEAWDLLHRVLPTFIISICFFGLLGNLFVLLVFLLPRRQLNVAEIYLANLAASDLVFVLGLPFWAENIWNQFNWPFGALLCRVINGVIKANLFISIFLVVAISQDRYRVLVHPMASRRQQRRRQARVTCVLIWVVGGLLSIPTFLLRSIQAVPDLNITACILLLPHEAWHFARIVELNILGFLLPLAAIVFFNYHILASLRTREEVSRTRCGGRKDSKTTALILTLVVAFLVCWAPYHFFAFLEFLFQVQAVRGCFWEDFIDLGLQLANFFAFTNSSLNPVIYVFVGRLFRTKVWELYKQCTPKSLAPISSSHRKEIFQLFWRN
Procedure: as §1, §2

MAO-A (h) = target: T3, MAO-A (h) (Homo sapiens, UniProt P21397); assay: Enzyme assay MAO-A (h); format: biochemical; settings: read-out: % Inhibition of Control Values @ 10 μM
T3 construct: human placenta; from tissue; host or cells: human placenta
T3 sequence (P21397 1-527): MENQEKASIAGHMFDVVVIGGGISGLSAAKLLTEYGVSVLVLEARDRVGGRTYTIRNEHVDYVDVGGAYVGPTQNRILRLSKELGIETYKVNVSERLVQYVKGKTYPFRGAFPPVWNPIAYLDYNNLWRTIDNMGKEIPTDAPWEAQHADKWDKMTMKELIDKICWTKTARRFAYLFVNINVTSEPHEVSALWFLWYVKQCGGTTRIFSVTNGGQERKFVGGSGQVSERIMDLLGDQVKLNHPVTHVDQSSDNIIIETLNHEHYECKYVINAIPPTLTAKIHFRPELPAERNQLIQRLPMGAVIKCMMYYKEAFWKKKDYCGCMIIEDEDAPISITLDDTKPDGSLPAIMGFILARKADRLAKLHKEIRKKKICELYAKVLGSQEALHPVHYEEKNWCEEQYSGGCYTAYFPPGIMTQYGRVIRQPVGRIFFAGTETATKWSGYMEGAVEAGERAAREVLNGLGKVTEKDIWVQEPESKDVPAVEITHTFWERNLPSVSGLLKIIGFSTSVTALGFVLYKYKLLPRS
Excerpt: (§3) The enzyme assays provided below will be familiar to those skilled in the art.
(§4) Analysis and Expression of Results: The results are expressed as a percent of control specific activity ((measured specific activity/control specific activity)×100) obtained in the presence of the test compounds.

Endothelin ETA (h) = target: T4, Endothelin ETA (h) (Homo sapiens, UniProt P25101); assay: Binding ETA (h) (ag); settings: read-out: % Inhibition of Control Specific Binding @ 10 μM
T4 construct: expressed in transfected cells; host or cells: CHO cells
T4 sequence (P25101 21-427): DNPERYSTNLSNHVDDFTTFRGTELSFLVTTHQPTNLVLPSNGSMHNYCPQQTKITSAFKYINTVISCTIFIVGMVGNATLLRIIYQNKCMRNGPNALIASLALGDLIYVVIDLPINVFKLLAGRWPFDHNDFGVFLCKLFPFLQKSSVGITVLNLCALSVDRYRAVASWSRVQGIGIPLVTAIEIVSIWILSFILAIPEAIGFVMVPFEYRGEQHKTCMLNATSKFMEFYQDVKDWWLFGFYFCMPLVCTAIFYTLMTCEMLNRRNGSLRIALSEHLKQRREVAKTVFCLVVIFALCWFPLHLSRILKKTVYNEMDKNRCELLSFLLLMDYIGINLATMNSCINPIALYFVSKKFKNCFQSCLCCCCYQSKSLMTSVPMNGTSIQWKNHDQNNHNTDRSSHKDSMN
Procedure: as §1, §2

Vasopressin V2 (h) = target: T5, Vasopressin V2 (h) (Homo sapiens, UniProt P30518); assay: Binding V2 (h) (ag); settings: read-out: % Inhibition of Control Specific Binding @ 10 μM
T5 construct: expressed in transfected cells; host or cells: CHO cells
T5 sequence (P30518 whole entry): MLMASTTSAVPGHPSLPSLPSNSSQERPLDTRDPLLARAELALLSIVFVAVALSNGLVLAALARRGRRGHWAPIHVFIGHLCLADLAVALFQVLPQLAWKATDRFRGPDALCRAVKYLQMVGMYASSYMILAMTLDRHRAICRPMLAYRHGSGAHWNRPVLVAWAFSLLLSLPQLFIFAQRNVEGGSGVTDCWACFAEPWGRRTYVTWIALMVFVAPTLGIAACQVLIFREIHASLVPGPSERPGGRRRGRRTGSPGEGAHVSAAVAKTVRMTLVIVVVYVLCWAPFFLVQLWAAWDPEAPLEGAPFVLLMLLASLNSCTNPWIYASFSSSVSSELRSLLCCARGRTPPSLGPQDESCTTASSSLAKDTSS
Procedure: as §1, §2

Neurokinin NK3 (h) = target: T6, Neurokinin NK3 (h) (Homo sapiens, UniProt P29371); assay: Binding NK3 (h) (aa); settings: read-out: % Inhibition of Control Specific Binding @ 10 μM
T6 construct: expressed in transfected cells; host or cells: CHO cells
T6 sequence (P29371 1-465): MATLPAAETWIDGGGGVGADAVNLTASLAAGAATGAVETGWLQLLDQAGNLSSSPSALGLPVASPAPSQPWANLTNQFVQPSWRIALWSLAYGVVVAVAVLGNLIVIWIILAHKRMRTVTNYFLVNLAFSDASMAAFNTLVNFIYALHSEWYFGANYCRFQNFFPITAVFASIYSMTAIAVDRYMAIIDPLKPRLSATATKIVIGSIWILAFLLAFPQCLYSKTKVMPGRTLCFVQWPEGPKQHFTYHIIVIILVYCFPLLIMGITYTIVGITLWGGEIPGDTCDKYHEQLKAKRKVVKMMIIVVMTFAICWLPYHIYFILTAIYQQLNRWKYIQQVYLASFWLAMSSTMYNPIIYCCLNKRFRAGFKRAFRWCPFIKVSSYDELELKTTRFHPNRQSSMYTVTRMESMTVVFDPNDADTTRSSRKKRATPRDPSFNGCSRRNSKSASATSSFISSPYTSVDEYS
Procedure: as §1, §2

[1] = test system: Benzodiazepine BZD (central); assay: Binding BZD (central) (ag); set-up: species or system rat
Procedure: as §1, §2

Adrenergic α2 (ns) = assay: Binding α2 (ns) (aa); set-up: species or system rat
Procedure: as §1, §2

GABA (ns) = assay: Binding GABA (ns) (ag); set-up: species or system rat
Procedure: as §1, §2

NMDA = assay: Binding NMDA (aa); set-up: species or system rat
Procedure: as §1, §2

PKCα (h) = target: T7, PKCα (h) (Homo sapiens, UniProt P17252); assay: Enzyme assay PKCα (h); format: biochemical; settings: read-out: % Inhibition of Control Values @ 10 μM
T7 construct: host or cells: insect cells
Excerpt: as §3, §4

PDE2A (h) = target: T8, PDE2A (h) (Homo sapiens, UniProt O00408); assay: Enzyme assay PDE2A (h); format: biochemical; settings: read-out: % Inhibition of Control Values @ 10 μM
T8 construct: host or cells: Sf9 cells
T8 sequence (O00408 whole entry): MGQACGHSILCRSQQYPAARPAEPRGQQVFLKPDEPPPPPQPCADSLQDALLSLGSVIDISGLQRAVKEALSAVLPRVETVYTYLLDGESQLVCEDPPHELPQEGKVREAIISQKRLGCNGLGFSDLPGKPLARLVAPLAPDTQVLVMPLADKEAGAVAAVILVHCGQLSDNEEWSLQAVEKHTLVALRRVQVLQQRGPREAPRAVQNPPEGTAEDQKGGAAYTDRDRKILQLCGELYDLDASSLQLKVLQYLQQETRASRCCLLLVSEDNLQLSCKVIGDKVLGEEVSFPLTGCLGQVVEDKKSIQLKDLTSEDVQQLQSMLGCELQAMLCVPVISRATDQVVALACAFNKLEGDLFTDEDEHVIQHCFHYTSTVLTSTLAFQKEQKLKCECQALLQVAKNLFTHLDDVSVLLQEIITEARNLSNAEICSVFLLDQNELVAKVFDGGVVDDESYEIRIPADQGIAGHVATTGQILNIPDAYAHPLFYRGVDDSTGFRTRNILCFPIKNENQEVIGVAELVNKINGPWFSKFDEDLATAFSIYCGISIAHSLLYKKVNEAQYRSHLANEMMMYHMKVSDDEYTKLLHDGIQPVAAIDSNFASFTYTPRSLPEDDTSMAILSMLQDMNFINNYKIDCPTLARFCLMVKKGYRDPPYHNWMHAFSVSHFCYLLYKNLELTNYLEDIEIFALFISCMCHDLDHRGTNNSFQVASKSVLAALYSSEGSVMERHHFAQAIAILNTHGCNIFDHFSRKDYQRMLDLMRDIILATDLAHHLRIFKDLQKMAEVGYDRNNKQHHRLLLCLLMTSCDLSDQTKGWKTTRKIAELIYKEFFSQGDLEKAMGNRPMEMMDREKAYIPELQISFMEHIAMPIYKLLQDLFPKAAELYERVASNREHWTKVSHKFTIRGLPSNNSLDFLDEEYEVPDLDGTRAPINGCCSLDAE
Excerpt: as §3, §4

Na^+ channel (site 2) = assay: Binding Na+ channel (site 2) (aa); set-up: species or system rat
Procedure: as §1, §2

β1 (h) = target: T9, β1 (h) (Homo sapiens, UniProt P08588); assay: Binding β1 (h) (ag); settings: read-out: % Inhibition of Control Specific Binding @ 10 μM
T9 construct: expressed in transfected cells; host or cells: HEK-293 cells
T9 sequence (P08588 whole entry): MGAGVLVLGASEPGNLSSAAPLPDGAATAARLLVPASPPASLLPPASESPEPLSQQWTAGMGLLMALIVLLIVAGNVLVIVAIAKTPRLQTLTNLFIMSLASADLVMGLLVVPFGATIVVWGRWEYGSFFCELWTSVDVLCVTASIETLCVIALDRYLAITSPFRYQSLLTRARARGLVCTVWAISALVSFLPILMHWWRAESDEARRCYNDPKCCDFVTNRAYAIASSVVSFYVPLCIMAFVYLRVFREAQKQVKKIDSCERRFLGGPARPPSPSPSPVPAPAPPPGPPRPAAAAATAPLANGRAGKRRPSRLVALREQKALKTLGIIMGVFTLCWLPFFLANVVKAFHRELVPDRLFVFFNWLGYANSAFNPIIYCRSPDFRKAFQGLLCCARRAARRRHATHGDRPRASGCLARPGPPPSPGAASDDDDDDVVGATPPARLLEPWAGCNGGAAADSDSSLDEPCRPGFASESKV
Procedure: as §1, §2

T1 sequence (Q15722 whole entry): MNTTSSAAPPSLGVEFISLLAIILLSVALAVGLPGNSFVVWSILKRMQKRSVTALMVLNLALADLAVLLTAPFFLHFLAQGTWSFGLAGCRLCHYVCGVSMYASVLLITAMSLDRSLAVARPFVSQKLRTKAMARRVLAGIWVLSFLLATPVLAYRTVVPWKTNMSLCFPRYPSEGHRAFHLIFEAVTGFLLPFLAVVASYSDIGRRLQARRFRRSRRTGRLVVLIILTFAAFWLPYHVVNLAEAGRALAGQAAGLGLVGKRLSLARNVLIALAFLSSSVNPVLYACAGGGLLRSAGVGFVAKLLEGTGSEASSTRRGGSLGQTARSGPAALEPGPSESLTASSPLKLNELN

Work on `CC1(C)C(=O)N(c2ccc(C#N)c(C(F)(F)F)c2)C(=S)N1c1ccc(C(=O)O)c(F)c1` [(MI), 4-(3-(4-cyano-3-(trifluoromethyl)phenyl)-5,5-dimethyl-4-oxo-2-thioxoimidazolidin-1-yl)-2-fluorobenzoic acid] yielded an inhibition at 10 µM (BLT1 (LTB4) (h)) of -15%, an inhibition at 10 µM (Bradykinin B1 (h)) of 0% and an inhibition at 10 µM (MAO-A (h)) of -5%. For the same compound, the inhibition at 10 µM (Endothelin ETA (h)) was -21%, the inhibition at 10 µM (Vasopressin V2 (h)) was 5% and the inhibition at 10 µM (Neurokinin NK3 (h)) was -11%. The “% Inhibition of Control Specific Binding @ 10 μM” value (“% Inhibition” for short) [1] was −35%, the “% Inhibition” value (Adrenergic α2 (ns)) was −7% and the “% Inhibition” value (GABA (ns)) was −12%. The “% Inhibition” value (NMDA) was 2%, the inhibition at 10 µM (PKCα (h)) was 4% and the inhibition at 10 µM (PDE2A (h)) was 12%. For the same compound, the “% Inhibition” value (Na^+ channel (site 2)) was −5% and the inhibition at 10 µM (β1 (h)) was -2%.

For `CC1(C)C(=O)N(c2ccc(C#N)c(C(F)(F)F)c2)C(=S)N1c1ccc(C(N)=O)c(F)c1` [(MII), 4-(3-(4-Cyano-3-(trifluoromethyl)phenyl)-5,5-dimethyl-4-oxo-2-thioxoimidazolidin-1-yl)-2-fluorobenzamide], the inhibition at 10 µM (BLT1 (LTB4) (h)) was -8%, the inhibition at 10 µM (Bradykinin B1 (h)) was 6% and the inhibition at 10 µM (MAO-A (h)) was 0%. For the same compound, the inhibition at 10 µM (Endothelin ETA (h)) was -16%, the inhibition at 10 µM (Vasopressin V2 (h)) was 3% and the inhibition at 10 µM (Neurokinin NK3 (h)) was 3%. For the same compound, the “% Inhibition” value [1] was −37%, the “% Inhibition” value (Adrenergic α2 (ns)) was −9% and the “% Inhibition” value (GABA (ns)) was 0%. The “% Inhibition” value (NMDA) was 5%, the inhibition at 10 µM (PKCα (h)) was 6% and the inhibition at 10 µM (PDE2A (h)) was 2%. The “% Inhibition” value (Na^+ channel (site 2)) was 13% and the inhibition at 10 µM (β1 (h)) was -7%.

Work on `CC1(C)C(=O)N(c2ccc(C#N)c(C(F)(F)F)c2)C(=O)N1c1ccc(C(N)=O)c(F)c1` [(MIII), 4-(3-(4-cyano-3-(trifluoromethyl)phenyl)-5,5-dimethyl-2,4-dioxoimidazolidin-1-yl)-2-fluorobenzamide] yielded an inhibition at 10 µM (BLT1 (LTB4) (h)) of -4%, an inhibition at 10 µM (Bradykinin B1 (h)) of 5% and an inhibition at 10 µM (MAO-A (h)) of 14%. It also gave an inhibition at 10 µM (Endothelin ETA (h)) of -12%, an inhibition at 10 µM (Vasopressin V2 (h)) of 4% and an inhibition at 10 µM (Neurokinin NK3 (h)) of -2%. For the same compound, the “% Inhibition” value [1] was −20%, the “% Inhibition” value (Adrenergic α2 (ns)) was −7% and the “% Inhibition” value (GABA (ns)) was −10%. For the same compound, the “% Inhibition” value (NMDA) was 0%, the inhibition at 10 µM (PKCα (h)) was 3% and the inhibition at 10 µM (PDE2A (h)) was 2%. The “% Inhibition” value (Na^+ channel (site 2)) was 1% and the inhibition at 10 µM (β1 (h)) was 2%.

Work on `CNC(=O)c1ccc(N2C(=O)N(c3ccc(C#N)c(C(F)(F)F)c3)C(=O)C2(C)C)cc1F` [(MIV), 4-(3-(4-cyano-3-(trifluoromethyl)phenyl)-5,5-dimethyl-2,4-dioxoimidazolidin-1-yl)-2-fluoro-N-methylbenzamide] yielded an inhibition at 10 µM (BLT1 (LTB4) (h)) of -6%, an inhibition at 10 µM (Bradykinin B1 (h)) of 4% and an inhibition at 10 µM (MAO-A (h)) of 11%. It also gave an inhibition at 10 µM (Endothelin ETA (h)) of -27%, an inhibition at 10 µM (Vasopressin V2 (h)) of -1% and an inhibition at 10 µM (Neurokinin NK3 (h)) of -7%. The “% Inhibition” value [1] was −29%, the “% Inhibition” value (Adrenergic α2 (ns)) was −7% and the “% Inhibition” value (GABA (ns)) was 5%. The “% Inhibition” value (NMDA) was −41%, the inhibition at 10 µM (PKCα (h)) was 5% and the inhibition at 10 µM (PDE2A (h)) was 0%. The “% Inhibition” value (Na^+ channel (site 2)) was 5% and the inhibition at 10 µM (β1 (h)) was 3%.
